Assay results from publication PMC7463460, “Structure and Antiparasitic Activity Relationship of Alkylphosphocholine Analogues against Leishmania donovani” (Microorganisms, 2020).
Where “and” joins values, the source holds several entries; their conditions need not be identical. Equal values may be shown once. Read-outs that look alike come from different tables or passages of the source.

Key:
[1] = Cytotoxicity against uninfected macrophages (alamar blue); type: cell-based, BALB/c mice; conditions: BALB/c, mouse, read-out: Macrophage mean IC50 (CC50) (converted)
Description: (§1) The effect of drug treatment on parasite survival was determined by calculating the mean suppression in the light emitted from the drug-treated experimental sample compared to the mean control value and used to calculate the IC50 using Grafit® software (version 5.0, Erithacus Software, East Grinstead, West Sussex, UK). The effect of drug alone on the viability of uninfected macrophages was determined using the same experimental protocol above, but cell viability was determined using an alamar blue colorimetric assay. At the end of the incubation period, cells’ 10 µL resazurin solution (0.02% w/v) was added to control and drug treated cells and the absorbance of samples was read at 575 and 595 nm. The effect of drug treatment on cell survival, which correlates with the magnitude of dye reduction, was expressed as percentage viability (or alamar blue reduction) and determined using the formula provided in the manufacturer’s protocol % alamar blue reduction=(εoxλ)(Aλ1)−(εoxλ1)(Aλ2)/(εredλ1)(A^′λ2)−(εredλ2)(A^′λ1)x100
In the formula, ελ1 and ελ2 are constants representing the molar extinction coefficient of alamar blue at 575 and 595 nm, respectively, in the oxidized (εox) and reduced (εred) forms. Aλ1, Aλ2 and A’λ1, A’λ2 represent absorbance of test and negative control wells at 575 and 595 nm, respectively. The values of % alamar blue reduction (or % viability) were corrected for background values of negative controls containing medium without cells. Percent viability values were used to calculate the IC50 using Grafit® software (version 5.0).

[2] = system: L. donovani 275/18 (Sb-resistant) promastigotes; assay: Promastigote luciferase assay, Sb-resistant strain 275/18; type: cell-based, Leishmania donovani; conditions: for IC50: Leishmania donovani, read-out: Mean IC50 Promastigotes; for Promast: Amast Ratio: strain 275/18, Sb-resistant; for Cross-Resistance Index (CRI50) Promast: strain 275/18, Sb-resistant vs Sb-S
Excerpt: (§2) L. donovani cloned strains with different Sb susceptibility backgrounds were derived from isolates obtained from VL patients at the B.P. Koirala Institute of Health Sciences, Dharan, Nepal: MHOM/NP/02/BPK282/0cl4 (Sb sensitive, Sb-S). MHOM/NP/02/BPK087/0cl11 (Sb intermediate, Sb-I) and MHOM/NP/02/BPK275/0cl18 (Sb resistance, Sb-R [13]). In addition, Milt-resistant parasites raised against these three Sb sensitivity backgrounds and the Sb-sensitive strain (MHOM/ET/67:LV82) was also used in studies. Luciferase expressing promastigotes for the LV82 and Nepalese strains were prepared using previously published methods and the integrative construct (a gift from Dr D.F. Smith), designated pGL1313, contained pSSU-int fragments to facilitate integration into the ribosomal RNA locus of Leishmania.
(§3) The anti-leishmanial activity of APC against L. donovani luciferase-expressing promastigotes was determined by adding of the appropriate 100 µL parasite line (10^6 cells/mL) to the wells of a 96-well plate and adding 100 µL medium alone (controls) or 100 µL of APC compound (0.01 µg/mL–6.25 µg/mL, n = 3/treatment). […].
(§4) Luciferin solution (1 µg/mL in 20 µL medium without FCS) was added to the appropriate wells of the 96-well plate at the end of the experiment and the amount of light emitted/well was measured using a luminometer (Biotek Synergy HT, relative light units) using a wavelength/bandwidth of 440/40 nm, or IVIS® imaging (Spectrum Living Image system®, total flux, photons/sec).
as §1
(§5) Cross resistance (CRI50) indexes were determined as Cross selectivity indices (CRI)=mean IC50 value for the relevant drug−resistant strain i.e., Sb−I or Sb−R / mean IC50 value drug−sensitive strain Sb−S

[3] = system: L. donovani 275/18 Milt-Sb-resistant intracellular amastigotes; assay: Intracellular amastigote assay, Milt-resistant 275/18; type: cell-based, Leishmania donovani; conditions: for IC50: Leishmania donovani, read-out: Mean IC50 Value Amastigotes; for Selectivity Index (SI50): macrophage CC50 / amastigote IC50
Excerpt: as §2
In the macrophage studies, the method described in previous studies was used as follows. Briefly, bone-marrow-derived BALB/c macrophages (1–2 × 10^5) in 100 µL complete RPMI 1640 medium were added to the wells of a 96 well plate and left to adhere for 24 h at 37 °C, 5% CO₂/95% air. The medium was removed and 100 µL of the appropriate L. donovani luciferase-expressing promastigotes line (parasite: host cell ratio 1:10, 1:20 or 1:40) was added to each well, the ratio used reflected the infectivity of the strain and ensured that control data gave a bioluminescent signal within the same range. […] The variability in infectivity complicates strain to strain comparisons, but we decided to focus on achieving good infection levels in controls so that the effect of drug treatment could be determined. It is possible that intracellular macrophage parasites could have been at different developmental stages at 24 h post-infection. […] Therefore, we assumed that the effect of compounds on the amastigote stage rather than the promastigotes stage was determined in in vitro macrophage studies.
The plate was incubated for a further 24 h, the medium removed, and each well washed with PBS to eliminate non-internalized parasites, which were monitored microscopically. When the wells were devoid of external parasites, 100 µL of the medium alone (control) or appropriate APC compound was then added (0.01–0.197 µg/mL, n = 3/treatment). […]. All plates were incubated for 72 h at 37 °C, 5% CO₂/95% air. Wells with macrophage and with no drug or promastigotes added were used in control experiments.
as §4
as §1, with “reduction=(εoxλ)(Aλ1)−(εoxλ1)(Aλ2)/(εredλ1)(A^′λ2)−(εredλ2)(A^′λ1)x100 […]” for “reduction=(εoxλ)(Aλ1)−(εoxλ1)(Aλ2)/(εredλ1)(A^′λ2)−(εredλ2)(A^′λ1)x100”

[4] = system: L. donovani 275/18 Milt-Sb-resistant promastigotes; assay: Promastigote luciferase assay, Milt-resistant 275/18; type: cell-based, Leishmania donovani; conditions: for IC50: Leishmania donovani, read-out: Mean IC50 Value Promastigotes
Excerpt: as §2, §3, §4, §1, §5

[5] = uninfected bone-marrow-derived macrophages
[6] = strain 275/18, Milt-Sb-resistant

SMILES | IC50 at 3 days [1, 5] | IC50 [2] | Promast: Amast Ratio [2] | Cross-Resistance Index (CRI50) Promast [2] | IC50 [3] | Selectivity Index (SI50) [3, 6] | IC50 [4] | Promast: Amast Ratio [4, 6] | Cross-Resistance Index (CRI50) Amast [3, 6] | Cross-Resistance Index (CRI50) Promast [4, 6] | IC50 at 3 days [1]
CCCCCCCCCCCCOP(=O)([O-])OCC[N+](C)(C)C [APC12, dodecylphosphocholine] | 35.4 µg/mL and 101 µM | 0.49 µg/mL and 1.39 µM | 2.10 | 0.89 | 4.45 µg/mL and 12.7 µM | 7.95 | > 125 µg/mL and > 356 µM | >28.09 | – | – | –
CCCCCCCCCCCCCCOP(=O)([O-])OCC[N+](C)(C)C [APC14, tetradecylphosphocholine] | 40.9 µg/mL and 108 µM | 0.37 µg/mL and 970 nM | 1.31 | 0.84 | 34.9 µg/mL and 91.8 µM | 1.17 | > 125 µg/mL and > 329 µM | – | > 20.144 | 1.00 | –
CCCCCCCCCCCCCCCCOP(=O)([O-])OCC[N+](C)(C)C [APC16, hexadecylphosphocholine, reference compound] | – | 1.26 µg/mL and 3.09 µM | 2.49 | – | > 61.4 µg/mL and > 151 µM | – | > 125 µg/mL and > 307 µM | 2.04 | – | – | 5.08 µg/mL and 12.5 µM
